# From patent US9687479B2, “Multisubstituted aromatic compounds as serine protease inhibitors” (VERSEON CORPORATION, priority 2013, dated 2017)
# Molecular target: Human thrombin (Homo sapiens (Human), UniProt P00734)
# Experiment: Thrombin protease activity inhibition assay (chromogenic substrate S-2238)
# Type: biochemical
# Details: 3 nM thrombin, 125 μM S-2238, 10 min pre-incubation, RT
# Procedure, shortened: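 Thrombin at 3 nM final in 0.05 M Tris pH 7.4, 0.015 M NaCl, 0.01% PEG-8000, at room temperature; compounds as ten-point three-fold dilutions.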
row,Compound,IC50 [nM]
1,"O=C(c1cccc2c1OCCO2)n1nc(-c2cccn(Cc3ccsc3)c2=O)cc1NCc1ccc(Cl)s1 [Cmpd 118, 3-(5-[(5-chlorothiophen-2-yl)methyl]amino-1-[(2,3-dihydro-1,4-benzodioxin-5-yl)carbonyl]-1H-pyrazol-3-yl)-1-(thiophen-3-ylmethyl)-1,2-dihydropyridin-2-one]",< 100
2,"O=C(c1cccs1)n1nc(-c2cccn(Cc3ccsc3)c2=O)cc1NCc1ccc(Cl)s1 [Cmpd 191, 3-(5-[(5-chlorothiophen-2-yl)methyl]amino-1-[(thiophen-2-yl)carbonyl]-1H-pyrazol-3-yl)-1-(thiophen-3-ylmethyl)-1,2-dihydropyridin-2-one]",< 100
3,"O=C(c1ccccc1)n1nc(-c2cccn(Cc3ccco3)c2=O)cc1NCc1ccc(Cl)s1 [Cmpd 63, 3-(1-benzoyl-5-[(5-chlorothiophen-2-yl)methyl]amino-1H-pyrazol-3-yl)-1-(furan-2-ylmethyl)-1,2-dihydropyridin-2-one]",< 100
4,"CC1(C(=O)n2nc(-c3cccn(Cc4ccncc4)c3=O)cc2NCc2ccc(Cl)s2)CCOCC1 [Cmpd 155, 3-(5-[(5-chlorothiophen-2-yl)methyl]amino-1-[(4-methyloxan-4-yl)carbonyl]-1H-pyrazol-3-yl)-1-(pyridin-4-ylmethyl)-1,2-dihydropyridin-2-one]",< 100
5,"O=C(c1cccc2c1OCCO2)n1nc(-c2cccn(Cc3ccoc3)c2=O)cc1NCc1ccc(Cl)s1 [Cmpd 111, 3-(5-[(5-chlorothiophen-2-yl)methyl]amino-1-[(2,3-dihydro-1,4-benzodioxin-5-yl)carbonyl]-1H-pyrazol-3-yl)-1-(furan-3-ylmethyl)-1,2-dihydropyridin-2-one]",< 100

# Molecular target: Human KLKB1 (Homo sapiens (Human), UniProt P03952)
# Sequence (P03952 391-638 limits assumed): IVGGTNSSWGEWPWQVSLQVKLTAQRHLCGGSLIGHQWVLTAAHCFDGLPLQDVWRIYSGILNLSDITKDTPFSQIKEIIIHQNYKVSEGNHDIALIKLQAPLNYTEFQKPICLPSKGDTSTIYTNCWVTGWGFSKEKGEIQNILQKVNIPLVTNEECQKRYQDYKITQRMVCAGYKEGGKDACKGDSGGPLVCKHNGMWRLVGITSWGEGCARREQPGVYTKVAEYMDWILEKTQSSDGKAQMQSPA
# Sequence (P03952 20-390 partner limits assumed): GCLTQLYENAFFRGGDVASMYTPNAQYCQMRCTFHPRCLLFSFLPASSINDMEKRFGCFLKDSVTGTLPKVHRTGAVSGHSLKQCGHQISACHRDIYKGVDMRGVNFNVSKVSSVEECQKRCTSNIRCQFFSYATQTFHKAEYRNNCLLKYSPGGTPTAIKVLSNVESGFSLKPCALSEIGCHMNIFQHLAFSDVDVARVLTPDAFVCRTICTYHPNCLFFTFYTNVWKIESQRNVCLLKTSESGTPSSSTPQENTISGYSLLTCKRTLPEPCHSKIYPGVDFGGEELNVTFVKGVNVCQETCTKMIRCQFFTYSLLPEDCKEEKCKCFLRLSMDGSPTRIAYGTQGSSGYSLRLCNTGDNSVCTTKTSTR
# Experiment: KLKB1 kallikrein activity inhibition assay (chromogenic substrate S-2302)
# Type: biochemical
# Details: not given
# Experimental: The KLKB1 kallikrein activity reported herein (e.g., Tables B, C, and D) was obtained as follows. Human KLKB1 protein was obtained from Enzyme Research Labs. […] KLKB1 was assayed in buffer containing 0.05 M Tris (pH 7.4), 0.01 M NaCl and 0.2% w/v PEG-8000. The final concentration of enzyme used was 3 nM KLKB1. […] All assays were performed in 96-well microtiter plates at room temperature (RT). […] Inhibitor IC50 values were determined by adding test compound as ten point, three-fold serial dilutions in buffer solution, as known in the art. The plate was read at 10 minutes after substrate addition. The IC50 was calculated by plotting the percent (%) inhibition against compound concentration and fitting the data to a constrained four parameter sigmoidal curve, as known in the art.
row,Compound,IC50 [µM]
1,"COC(=O)c1n[nH]c(NC(=O)c2ccc(C)cc2)n1 [Cmpd 408, methyl 5-[(4-methylbenzene)amido]-1H-1,2,4-triazole-3-carboxylate]",> 100

# Same assay, conditions: 3 nM KLKB1, 250 μM S-2302, 10 min pre-incubation, RT
row,Compound,IC50 [µM]
1,"Cc1cc(N(C)c2ccccc2)nc(N[C@H]2CCc3c(N)cccc3C2)n1 [Cmpd 422, 2-N-[(2S)-5-amino-1,2,3,4-tetrahydronaphthalen-2-yl]-4-N,6-dimethyl-4-N-phenylpyrimidine-2,4-diamine]",> 100
2,"Cc1cc(N(C)c2ccc(Cl)cc2)nc(N[C@H]2CCc3c(N)cccc3C2)n1 [Cmpd 425, 2-N-[(2S)-5-amino-1,2,3,4-tetrahydronaphthalen-2-yl]-4-N-(4-chlorophenyl)-4-N,6-dimethylpyrimidine-2,4-diamine]",> 100
3,"Cc1cc(N(C)c2cccc(Cl)c2)nc(N[C@H]2CCc3c(N)cccc3C2)n1 [Cmpd 424, 2-N-[(2S)-5-amino-1,2,3,4-tetrahydronaphthalen-2-yl]-4-N-(3-chlorophenyl)-4-N,6-dimethylpyrimidine-2,4-diamine]",> 100
4,"Cc1cc(N(C)c2ccccc2F)nc(N[C@@H]2CCc3c(N)cccc3C2)n1 [Cmpd 419, 2-N-[(2R)-5-amino-1,2,3,4-tetrahydronaphthalen-2-yl]-4-N-(2-fluorophenyl)-4-N,6-dimethylpyrimidine-2,4-diamine]",> 100
5,"O=C(NCc1ccc2[nH]cc(Cl)c2c1)[C@H]1CC(=O)N(Cc2ccccc2)C1 [Cmpd 415, (3S)-1-benzyl-N-[(3-chloro-1H-indol-5-yl)methyl]-5-oxopyrrolidine-3-carboxamide]",> 100
6,"Cc1cc(N(C)c2cccc(F)c2)nc(N[C@@H]2CCc3c(N)cccc3C2)n1 [Cmpd 420, 2-N-[(2R)-5-amino-1,2,3,4-tetrahydronaphthalen-2-yl]-4-N-(3-fluorophenyl)-4-N,6-dimethylpyrimidine-2,4-diamine]",> 100
7,"O=C(NCc1ccc2[nH]cc(Cl)c2c1)[C@H]1CC(=O)N(Cc2cccc(Cl)c2)C1 [Cmpd 418, (3S)-N-[(3-chloro-1H-indol-5-yl)methyl]-1-[(3-chlorophenyl)methyl]-5-oxopyrrolidine-3-carboxamide]",> 100

# Same assay, conditions: Table B
row,Compound,IC50 [µM]
1,"CC(C)(C)C(=O)n1nc(-c2ccccn2)cc1NCc1ccco1 [Cmpd 280, 1-5-[(furan-2-ylmethyl)amino]-3-(pyridin-2-yl)-1H-pyrazol-1-yl-2,2-dimethylpropan-1-one]",> 100
2,COc1ccccc1C(=O)n1nc(-c2ccccc2)c(F)c1NCc1ccccc1 [Cmpd 296],> 100
3,CC(C)(C)OC(=O)N1CCC(c2cc(NCc3ccc(Cl)s3)n(C(=O)c3ccsc3)n2)CC1 [Cmpd 298],> 100
4,CC(C)(C)C(=O)n1nc(-c2ccco2)cc1NCc1ccc(Cl)s1 [Cmpd 270],> 100
5,O=C(c1ccoc1)n1nc(-c2ccccn2)cc1NCc1ccc(Cl)s1 [Cmpd 288],10 to 100
6,CC(C)(CO)C(=O)n1nc(C2CCOCC2)c(F)c1NCc1ccc(Cl)s1 [Cmpd 273],10 to 100
7,CC(C)(CO)C(=O)n1nc(C2CCNCC2)c(F)c1NCc1ccc(Cl)s1 [Cmpd 274],1 to 10
8,O=C(c1ccoc1)n1nc(-c2cccs2)cc1NCc1ccc(Cl)s1 [Cmpd 289],> 100
9,CC(C)(C)OC(=O)N1CCC(c2cc(NCc3ccc(Cl)s3)n(C(=O)C(C)(C)C)n2)CC1 [Cmpd 297],> 100
10,O=C(c1ccoc1)n1nc(-c2ccccc2)c(F)c1NCc1ccc(Cl)s1 [Cmpd 295],> 100

# Same assay, conditions: Table C
row,Compound,IC50 [µM]
1,COc1ccc(CNc2nc(-c3cccnc3)nn2C(=O)c2cccs2)cc1 [Cmpd 381],> 100
2,O=C(c1ccccc1)n1nc(-c2ccncc2)nc1NCc1ccccc1 [Cmpd 363],0.1 to 1
3,COc1ccc(CNc2nc(-c3ccccn3)nn2C(=O)c2ccco2)cc1 [Cmpd 336],1 to 10
4,O=C(c1cccnc1)n1nc(-c2cccnc2)nc1NCc1cccs1 [Cmpd 365],1 to 10
5,CC(C)(C)C(=O)n1nc(-c2ccccn2)nc1NCc1ccc(F)cc1 [Cmpd 301],10 to 100
6,CC(C)(C)C(=O)n1nc(-c2ccccn2)nc1NCc1ccccc1 [Cmpd 344],10 to 100
7,COc1ccccc1C(=O)n1nc(C2CN(S(=O)(=O)N(C)C)C2)nc1NCc1ccc(Cl)s1 [Cmpd 364],< 0.1
8,CC(C)(C)C(=O)n1nc(-c2ccco2)nc1NCc1ccccc1 [Cmpd 342],> 100
9,CCC(=O)n1nc(-c2ccccn2)nc1NCc1ccc(OC)cc1 [Cmpd 325],10 to 100
10,COc1ccc(CNc2nc(-c3ccccn3)nn2C(=O)C(C)(C)C)cc1 [Cmpd 319],10 to 100
11,CCC(=O)n1nc(-c2cccnc2)nc1NCc1cccs1 [Cmpd 340],10 to 100
12,O=C(c1cccs1)n1nc(-c2ccncc2)nc1NCc1ccc(F)cc1 [Cmpd 378],> 100
13,CCCC(=O)n1nc(-c2cccnc2)nc1NCc1ccc(OC)cc1 [Cmpd 330],10 to 100
14,CC(C)(C)C(=O)n1nc(C2CCCO2)nc1NCc1ccc(Cl)s1 (stereo not shown) [Cmpd 331],1 to 10
15,CCC(=O)n1nc(-c2cccnc2)nc1NCc1ccccc1 [Cmpd 349],10 to 100
16,CC(C)CC(=O)n1nc(-c2ccncc2)nc1NCc1ccccc1 [Cmpd 353],> 100
17,O=C(c1ccco1)n1nc(-c2ccncc2)nc1NCc1ccccc1 [Cmpd 400],1 to 10
18,O=C(c1ccsc1)n1nc(-c2cccnc2)nc1NCc1ccc(F)cc1 [Cmpd 377],0.1 to 1
19,COc1ccccc1C(=O)n1nc(-c2ccccn2)nc1NCc1ccccc1 [Cmpd 397],1 to 10
20,Fc1ccc(CNc2nc(-c3ccccn3)nn2-c2nc3ccccc3s2)cc1 [Cmpd 299],> 100
21,CCCC(=O)n1nc(-c2ccncc2)nc1NCc1ccccc1 [Cmpd 355],> 100

row,Compound,IC50 [µM]
1,COCC(=O)n1nc(-c2cccnc2)nc1NCc1ccc(F)cc1 [Cmpd 309],> 100
2,CC(C)CC(=O)n1nc(-c2ccncc2)nc1NCc1ccc(F)cc1 [Cmpd 316],> 100
3,O=C(Cc1ccccc1)n1nc(-c2ccncc2)nc1NCc1ccccc1 [Cmpd 352],> 100
4,CC(C)(C)C(=O)n1nc(-c2ccncc2)nc1NCc1ccccc1 [Cmpd 350],> 100
5,COc1ccccc1C(=O)n1nc(-c2cccnc2)nc1SCc1ccc(F)cc1 [Cmpd 14],0.1 to 1
6,CC(C)(C)C(=O)n1nc(-c2cccs2)nc1NCc1ccccc1 [Cmpd 357],> 100
7,COc1ccccc1C(=O)n1nc(-c2ccccc2)nc1NCc1ccc(Cl)o1 [Cmpd 383],> 100
8,O=C(CCc1ccccc1)n1nc(-c2cccnc2)nc1NCc1ccc(F)cc1 [Cmpd 313],10 to 100
9,CCCn1nc(-c2ccccn2)nc1NCc1ccc(F)cc1 [Cmpd 374],> 100
10,CC(C)C(=O)n1nc(-c2ccccn2)nc1NCc1ccc(F)cc1 [Cmpd 302],10 to 100
11,O=C(Cc1ccccc1)n1nc(-c2ccco2)nc1NCc1ccccc1 [Cmpd 343],> 100
12,COc1ccccc1C(=O)n1nc(C2CCN(C(=O)OC(C)(C)C)CC2)nc1NCc1ccc(Cl)s1 [Cmpd 412],0.1 to 1
13,COc1ccc(CNc2nc(-c3ccccn3)nn2C(=O)Cc2ccccc2)cc1 [Cmpd 321],10 to 100
14,CC(C)C(=O)n1nc(-c2ccccn2)nc1NCc1ccccc1 [Cmpd 345],10 to 100
15,CC(C)(C)C(=O)n1nc(-c2cccnc2)nc1NCc1ccc(F)cc1 [Cmpd 308],10 to 100
16,COc1ccccc1C(=O)n1nc(-c2ccccc2)nc1NCc1ccsc1 [Cmpd 335],10 to 100
17,COc1ccc(CNc2nc(-c3ccccn3)nn2C(=O)C(C)C)cc1 [Cmpd 320],> 100
18,COc1ccc(CNc2nc(-c3ccncc3)nn2C(=O)c2ccco2)cc1 [Cmpd 337],> 100
19,COc1ccc(CNc2nc(-c3cccnc3)nn2C(=O)c2ccoc2)cc1 [Cmpd 339],> 100
20,CC(C)CC(=O)n1nc(-c2ccccn2)nc1NCc1ccc(F)cc1 [Cmpd 304],10 to 100
